Key:
Adenosine receptor A1 = Adenosine receptor A1 (Homo sapiens, UniProt P30542); assay: Agonist activity at recombinant human adenosine A1 receptor expressed in mouse BA/F3 cells assessed as increase in calcium flux by spectrophotometric method; assay type: functional, cell-based
[1] = biological target: Peroxisome proliferator-activated receptor gamma (Homo sapiens) (UniProt P37231); assay: Displacement of [3H]rosiglitazone from recombinant human PPARgamma at 10 uM after 120 mins by scintillation counting method
Chain of Peroxisome proliferator-activated receptor gamma (Homo sapiens) (P37231 whole entry): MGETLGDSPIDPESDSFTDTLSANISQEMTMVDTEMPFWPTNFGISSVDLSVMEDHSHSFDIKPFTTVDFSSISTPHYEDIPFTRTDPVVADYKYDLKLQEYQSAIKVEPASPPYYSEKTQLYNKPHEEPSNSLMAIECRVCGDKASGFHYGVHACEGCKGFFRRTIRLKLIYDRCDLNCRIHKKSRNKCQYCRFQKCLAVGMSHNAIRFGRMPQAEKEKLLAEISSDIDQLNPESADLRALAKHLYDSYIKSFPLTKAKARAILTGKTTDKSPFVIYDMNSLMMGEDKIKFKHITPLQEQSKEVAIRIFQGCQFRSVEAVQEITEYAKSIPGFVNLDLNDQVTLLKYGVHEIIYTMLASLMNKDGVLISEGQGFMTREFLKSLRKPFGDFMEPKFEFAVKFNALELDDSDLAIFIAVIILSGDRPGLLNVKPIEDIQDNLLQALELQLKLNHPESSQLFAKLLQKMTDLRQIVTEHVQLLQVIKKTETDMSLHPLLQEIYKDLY

Homo sapiens = species: Homo sapiens; assay: Inhibition of sodium channel site2 (unknown origin) at 10 uM by radioligand binding assay relative to control
[2] = biological target: 5-hydroxytryptamine receptor 1A (Homo sapiens) (UniProt P08908); assay: Agonist activity at human 5-HT1A receptor expressed in mouse BA/F3 cells assessed as increase in calcium flux at 10 uM by fluorimetric method relative to control; assay type: functional, cell-based
Chain of 5-hydroxytryptamine receptor 1A (Homo sapiens) (P08908 whole entry): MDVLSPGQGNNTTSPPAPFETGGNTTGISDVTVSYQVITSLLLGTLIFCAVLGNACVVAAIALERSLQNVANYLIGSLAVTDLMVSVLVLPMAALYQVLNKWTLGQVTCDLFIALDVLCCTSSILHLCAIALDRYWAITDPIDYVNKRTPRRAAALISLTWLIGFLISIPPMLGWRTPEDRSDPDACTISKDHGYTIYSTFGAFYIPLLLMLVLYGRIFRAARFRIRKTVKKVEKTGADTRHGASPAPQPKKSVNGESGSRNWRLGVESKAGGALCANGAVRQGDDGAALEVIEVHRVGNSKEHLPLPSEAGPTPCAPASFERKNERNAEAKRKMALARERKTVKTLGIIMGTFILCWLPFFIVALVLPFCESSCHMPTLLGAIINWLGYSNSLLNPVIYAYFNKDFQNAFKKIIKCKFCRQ

[3] = biological target: Histamine H1 receptor (Homo sapiens) (UniProt P35367); assay: Antagonist activity at human H1 receptor expressed in HEK293 cells assessed as inhibition of histamine-induced calcium flux at 10 uM by fluorimetric method relative to control; assay type: functional, cell-based
Chain of Histamine H1 receptor (Homo sapiens) (P35367 whole entry): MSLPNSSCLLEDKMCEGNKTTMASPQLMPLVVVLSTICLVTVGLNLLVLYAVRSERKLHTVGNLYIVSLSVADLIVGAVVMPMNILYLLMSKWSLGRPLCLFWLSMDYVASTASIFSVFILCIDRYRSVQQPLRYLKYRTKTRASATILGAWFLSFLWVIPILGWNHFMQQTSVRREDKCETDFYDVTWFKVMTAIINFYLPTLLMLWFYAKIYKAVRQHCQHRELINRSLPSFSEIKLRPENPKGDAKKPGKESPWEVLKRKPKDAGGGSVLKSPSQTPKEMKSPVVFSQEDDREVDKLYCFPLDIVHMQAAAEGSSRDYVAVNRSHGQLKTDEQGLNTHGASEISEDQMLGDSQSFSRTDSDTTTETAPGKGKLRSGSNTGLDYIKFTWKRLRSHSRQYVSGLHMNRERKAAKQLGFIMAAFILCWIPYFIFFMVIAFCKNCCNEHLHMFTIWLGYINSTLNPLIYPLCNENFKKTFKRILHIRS

[4] = Protein binding in dog plasma assessed as fraction unbound at 2 uM; assay type: ADME, cell-free, Canis lupus familiaris
monoamine oxidase = monoamine oxidase (Homo sapiens, UniProt P21397+P27338); assay: Inhibition of monoamine oxidase (unknown origin) at 10 uM relative to control; assay type: protein assay
[5] = biological target: Alpha-2B adrenergic receptor (Homo sapiens) (UniProt P18089); assay: Agonist activity at recombinant human alpha2b receptor expressed in HEK293 cells assessed as increase in cAMP accumulation at 10 uM measured after 30 mins by HTRF assay relative to control; assay type: functional, cell-based
Chain of Alpha-2B adrenergic receptor (Homo sapiens) (P18089 whole entry): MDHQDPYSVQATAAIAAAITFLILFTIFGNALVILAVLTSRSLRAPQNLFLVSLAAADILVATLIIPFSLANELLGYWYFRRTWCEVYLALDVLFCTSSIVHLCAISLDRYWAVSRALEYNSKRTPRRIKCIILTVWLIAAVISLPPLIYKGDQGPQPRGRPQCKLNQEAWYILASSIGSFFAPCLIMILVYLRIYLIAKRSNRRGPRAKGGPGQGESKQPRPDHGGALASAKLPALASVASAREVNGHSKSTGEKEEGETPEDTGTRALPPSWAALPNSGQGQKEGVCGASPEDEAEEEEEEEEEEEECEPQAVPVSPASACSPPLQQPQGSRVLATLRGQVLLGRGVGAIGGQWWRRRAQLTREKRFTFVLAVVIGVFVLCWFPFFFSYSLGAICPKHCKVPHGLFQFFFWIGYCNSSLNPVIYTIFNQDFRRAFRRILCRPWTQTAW

[6] = biological target: Mu-type opioid receptor (Homo sapiens) (UniProt P35372); assay: Agonist activity at recombinant human MOR expressed in CHOK1 cells assessed as increase in cAMP accumulation at 10 uM measured after 10 mins by HTRF assay relative to control; assay type: functional, cell-based
Chain of Mu-type opioid receptor (Homo sapiens) (P35372 whole entry): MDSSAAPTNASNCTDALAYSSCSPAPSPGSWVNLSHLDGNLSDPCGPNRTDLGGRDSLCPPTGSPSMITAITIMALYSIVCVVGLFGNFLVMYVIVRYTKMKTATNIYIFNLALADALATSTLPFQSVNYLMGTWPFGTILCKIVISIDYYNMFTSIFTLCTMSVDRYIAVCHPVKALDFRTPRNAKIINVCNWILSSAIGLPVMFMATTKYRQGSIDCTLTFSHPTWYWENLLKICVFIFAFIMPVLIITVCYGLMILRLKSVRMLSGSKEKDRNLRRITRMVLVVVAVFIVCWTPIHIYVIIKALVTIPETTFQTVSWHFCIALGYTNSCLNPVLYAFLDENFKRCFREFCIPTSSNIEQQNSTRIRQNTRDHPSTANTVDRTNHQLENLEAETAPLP

[7] = Solubility of the compound in aqueous buffer at pH 7.1; assay type: physicochemical
[8] = biological target: T1, Alpha-1A adrenergic receptor (Homo sapiens) (UniProt P35348); assay: Antagonist activity at recombinant human alpha1a receptor expressed in CHOK1 cells assessed as inhibition of epinephrine-induced calcium flux at 10 uM by fluorescence assay relative to control; assay type: functional, cell-based
T1 sequence (whole entry): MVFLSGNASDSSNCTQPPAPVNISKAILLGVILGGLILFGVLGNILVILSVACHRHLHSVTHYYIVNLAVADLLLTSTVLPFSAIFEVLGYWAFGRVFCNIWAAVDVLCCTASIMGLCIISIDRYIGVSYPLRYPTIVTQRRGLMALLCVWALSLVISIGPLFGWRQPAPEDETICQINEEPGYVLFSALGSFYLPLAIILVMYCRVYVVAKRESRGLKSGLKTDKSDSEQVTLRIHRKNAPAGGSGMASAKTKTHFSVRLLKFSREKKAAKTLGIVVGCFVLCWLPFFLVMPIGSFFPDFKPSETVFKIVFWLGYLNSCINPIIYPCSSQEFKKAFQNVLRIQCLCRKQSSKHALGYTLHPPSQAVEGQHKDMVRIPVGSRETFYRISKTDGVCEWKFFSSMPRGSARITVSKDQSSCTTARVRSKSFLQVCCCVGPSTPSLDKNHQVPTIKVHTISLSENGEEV

Rattus norvegicus [9] = species: Rattus norvegicus; assay: Displacement of [3H]nitrendipine from L-type calcium channel dihydropyridine (nifedipine) binding site in rat brain 10 uM measured after 90 mins by scintillation counting method
[10] = Half-life in rat at 0.3 mg/kg, iv via infusion for 1 hr; assay type: ADME, organism-based; conditions: in vivo
[11] = biological target: Alpha-2A adrenergic receptor (Homo sapiens) (UniProt P08913); assay: Agonist activity at recombinant human alpha2a receptor at 10 uM relative to control; assay type: functional
Chain of Alpha-2A adrenergic receptor (Homo sapiens) (P08913 whole entry): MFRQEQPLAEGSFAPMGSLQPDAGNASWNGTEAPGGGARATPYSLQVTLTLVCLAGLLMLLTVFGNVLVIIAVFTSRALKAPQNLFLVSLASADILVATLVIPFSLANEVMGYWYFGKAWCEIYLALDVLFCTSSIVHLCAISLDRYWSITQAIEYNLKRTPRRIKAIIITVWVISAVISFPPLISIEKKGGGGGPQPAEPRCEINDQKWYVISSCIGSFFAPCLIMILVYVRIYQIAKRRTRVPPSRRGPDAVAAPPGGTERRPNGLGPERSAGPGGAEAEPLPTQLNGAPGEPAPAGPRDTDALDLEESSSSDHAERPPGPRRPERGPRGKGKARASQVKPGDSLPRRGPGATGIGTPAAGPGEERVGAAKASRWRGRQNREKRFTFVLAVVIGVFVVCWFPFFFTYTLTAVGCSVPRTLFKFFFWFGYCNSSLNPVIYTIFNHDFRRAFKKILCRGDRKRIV

[12] = biological target: Endothelin-1 receptor (Homo sapiens) (UniProt P25101); assay: Agonist activity at human ETA receptor expressed in SK-N-MC cells assessed as increase in calcium flux at 10 uM by fluorimetric method relative to control; assay type: functional, cell-based
Chain of Endothelin-1 receptor (Homo sapiens) (P25101 whole entry): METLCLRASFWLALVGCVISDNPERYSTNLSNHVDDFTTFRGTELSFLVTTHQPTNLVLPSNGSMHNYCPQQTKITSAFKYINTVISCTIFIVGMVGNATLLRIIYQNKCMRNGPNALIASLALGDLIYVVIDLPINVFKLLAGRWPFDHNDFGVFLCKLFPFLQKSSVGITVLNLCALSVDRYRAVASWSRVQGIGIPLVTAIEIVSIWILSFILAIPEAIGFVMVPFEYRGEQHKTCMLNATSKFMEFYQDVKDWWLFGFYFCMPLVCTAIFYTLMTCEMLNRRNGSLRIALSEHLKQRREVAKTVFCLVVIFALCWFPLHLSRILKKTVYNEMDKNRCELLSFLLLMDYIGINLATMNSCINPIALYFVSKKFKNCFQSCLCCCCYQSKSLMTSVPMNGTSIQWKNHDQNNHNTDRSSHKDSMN

[13] = Solubility of the compound in aqueous buffer at pH 4.2; assay type: physicochemical
Rattus norvegicus [14] = species: Rattus norvegicus; assay: Displacement of [3H]diltiazem from L-type calcium channel diltiazem binding site in rat brain at 10 uM after 120 mins by scintillation counting method
[15] = Renal clearance in dog at 0.3 mg/kg, iv via infusion for 0.5 hrs; assay type: ADME, organism-based, Canis lupus familiaris, Kidney; conditions: in vivo
Rattus norvegicus [16] = species: Rattus norvegicus; assay: Displacement of [3H]GABA from rat brain GABA transporter at 10 uM after 30 mins by scintillation counting method
[17] = Solubility of the compound in aqueous buffer at pH 3.2; assay type: physicochemical
[18] = biological target: cGMP-inhibited 3',5'-cyclic phosphodiesterase 3B (Homo sapiens) (UniProt Q13370); assay: Inhibition of recombinant human PDE3B at 10 uM using [3H]cAMP as substrate measured after 20 mins by scintillation counting method relative to control
Chain of cGMP-inhibited 3',5'-cyclic phosphodiesterase 3B (Homo sapiens) (Q13370 whole entry, looked up): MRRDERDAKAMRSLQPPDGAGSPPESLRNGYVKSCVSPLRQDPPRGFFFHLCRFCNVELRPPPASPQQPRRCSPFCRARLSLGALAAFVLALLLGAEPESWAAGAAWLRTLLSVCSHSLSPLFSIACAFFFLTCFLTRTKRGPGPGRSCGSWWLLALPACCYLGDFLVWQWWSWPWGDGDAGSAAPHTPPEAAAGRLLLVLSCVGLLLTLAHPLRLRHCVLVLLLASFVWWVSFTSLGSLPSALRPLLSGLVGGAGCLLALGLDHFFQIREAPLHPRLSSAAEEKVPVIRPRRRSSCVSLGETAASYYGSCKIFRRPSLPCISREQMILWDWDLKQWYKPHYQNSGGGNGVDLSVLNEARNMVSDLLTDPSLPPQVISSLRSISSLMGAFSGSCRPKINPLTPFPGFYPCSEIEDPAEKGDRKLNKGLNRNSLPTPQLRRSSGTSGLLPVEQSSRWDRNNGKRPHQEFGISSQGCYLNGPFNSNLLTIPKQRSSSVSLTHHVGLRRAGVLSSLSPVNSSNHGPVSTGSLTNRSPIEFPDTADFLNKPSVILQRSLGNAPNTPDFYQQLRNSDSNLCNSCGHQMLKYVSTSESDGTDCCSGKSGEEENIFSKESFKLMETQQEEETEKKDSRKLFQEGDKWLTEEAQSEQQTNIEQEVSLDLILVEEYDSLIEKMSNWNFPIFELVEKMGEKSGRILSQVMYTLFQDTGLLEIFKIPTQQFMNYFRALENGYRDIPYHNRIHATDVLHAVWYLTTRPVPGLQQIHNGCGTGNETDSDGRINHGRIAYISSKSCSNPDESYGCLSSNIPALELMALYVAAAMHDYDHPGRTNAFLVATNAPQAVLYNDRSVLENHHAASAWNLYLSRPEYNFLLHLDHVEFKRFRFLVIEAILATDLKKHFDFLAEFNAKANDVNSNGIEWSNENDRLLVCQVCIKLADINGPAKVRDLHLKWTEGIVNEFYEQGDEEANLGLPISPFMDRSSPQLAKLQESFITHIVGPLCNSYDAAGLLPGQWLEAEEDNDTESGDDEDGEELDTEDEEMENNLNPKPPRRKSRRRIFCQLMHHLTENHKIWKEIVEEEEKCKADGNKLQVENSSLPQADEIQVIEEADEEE

Chain of Adenosine receptor A1 (P30542 whole entry): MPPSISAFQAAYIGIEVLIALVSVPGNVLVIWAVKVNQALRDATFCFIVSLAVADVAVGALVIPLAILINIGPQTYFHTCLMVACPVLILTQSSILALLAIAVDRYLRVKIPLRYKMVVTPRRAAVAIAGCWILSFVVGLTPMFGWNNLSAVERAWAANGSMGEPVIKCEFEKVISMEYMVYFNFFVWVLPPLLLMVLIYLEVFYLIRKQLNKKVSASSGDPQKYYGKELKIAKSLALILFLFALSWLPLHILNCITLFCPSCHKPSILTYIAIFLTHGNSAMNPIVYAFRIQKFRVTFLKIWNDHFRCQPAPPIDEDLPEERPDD

N#Cc1cc(S(=O)(=O)Nc2ncns2)ccc1Oc1ccc(-c2cccc(C(F)(F)F)c2)cc1-c1ccnc(CNCCC2CCNCC2)c1
EC50 (Adenosine receptor A1): 1.43 µM
inhibition [1]: 33.4%
inhibition (Homo sapiens): 92%
Activity [2]: -34%
inhibition [3]: -5%
fraction unbound at 2 µM [4]: 0.003
inhibition at 10 µM (monoamine oxidase): 16%
Activity [5]: -2%
Activity [6]: 21%
solubility [7]: > 2570 µg/mL
inhibition [8]: 23%
inhibition (Rattus norvegicus [9]): 31%
half-life [10]: 12.6 min
Activity [11]: -7%
Activity [12]: 8%
solubility [13]: > 1170 µg/mL
inhibition (Rattus norvegicus [14]): 40%
CL renal at 0.5 h [15]: 1.73 mL/day/kg
inhibition (Rattus norvegicus [16]): 5%
solubility [17]: > 906 µg/mL
inhibition [18]: -1%

— ChEMBL document CHEMBL4177603 (Bioorg Med Chem Lett, 2017)
